Article PMC8745710, “Biological Evaluation and Molecular Docking Studies of Novel 1,3,4-Oxadiazole Derivatives of 4,6-Dimethyl-2-sulfanylpyridine-3-carboxamide” (International Journal of Molecular Sciences, 2022)

What was measured:
COX-1 = molecular target: T1, COX-1 (Ovis aries, UniProt P05979); assay: COX colorimetric inhibitor screening assay, COX-1; assay type: biochemical; conditions: after 2 min of incubation, n = 5; read-out: IC50 [µM] ± SD COX-1
T1 construct: purchased Cayman Chemical Company, Ann Arbor, MI, USA
T1 sequence (P05979 25-600): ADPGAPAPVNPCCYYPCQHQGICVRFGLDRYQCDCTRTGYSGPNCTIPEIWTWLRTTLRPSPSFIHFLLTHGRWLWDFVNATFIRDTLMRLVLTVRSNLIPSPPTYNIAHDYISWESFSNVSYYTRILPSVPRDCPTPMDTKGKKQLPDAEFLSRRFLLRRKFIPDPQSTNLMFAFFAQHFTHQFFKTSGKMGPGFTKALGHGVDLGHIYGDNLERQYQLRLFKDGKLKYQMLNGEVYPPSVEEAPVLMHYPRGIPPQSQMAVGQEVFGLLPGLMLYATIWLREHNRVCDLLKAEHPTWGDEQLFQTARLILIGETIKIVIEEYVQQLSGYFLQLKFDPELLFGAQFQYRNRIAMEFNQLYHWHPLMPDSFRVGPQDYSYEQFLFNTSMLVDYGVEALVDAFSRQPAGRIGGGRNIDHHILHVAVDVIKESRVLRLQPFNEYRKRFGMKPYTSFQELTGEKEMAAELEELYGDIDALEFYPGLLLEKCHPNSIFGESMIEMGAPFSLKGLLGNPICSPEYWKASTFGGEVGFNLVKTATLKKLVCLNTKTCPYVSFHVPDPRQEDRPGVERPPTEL
From the text: (§1) The compounds were studied for their potencies to inhibit COX-1 and COX-2 enzymes by the colorimetric inhibitor screening assay.
(§2) A COX Colorimetric Inhibitor Screening Assay Kit, produced by Cayman Chemical Company, Ann Arbor, MI, USA, was used. It used the colorimetric monitoring of oxidized form of TMPD (N,N,N′,N′-tetramethyl-p-phenylenediamine) which was produced during reduction of prostaglandin G2 (PGG2) to PGH2. […] Reagents used it this assay were: COX-1 and COX-2 enzymes, Tris-HCl buffer, solutions of heme in DMSO and TMPD, arachidonic acid, KOH. To be sure that 100% enzymatic activity was achieved each sample was measured 3 times. The probes were measured after two minutes of incubation with tested compounds in the comparison to the initial activity of enzyme.

COX-2 = molecular target: T2, COX-2 (Homo sapiens, UniProt P35354); assay: COX colorimetric inhibitor screening assay, COX-2; assay type: biochemical; conditions: after 2 min of incubation, n = 5
T2 construct: purchased Cayman Chemical Company, Ann Arbor, MI, USA
T2 sequence (P35354 18-604): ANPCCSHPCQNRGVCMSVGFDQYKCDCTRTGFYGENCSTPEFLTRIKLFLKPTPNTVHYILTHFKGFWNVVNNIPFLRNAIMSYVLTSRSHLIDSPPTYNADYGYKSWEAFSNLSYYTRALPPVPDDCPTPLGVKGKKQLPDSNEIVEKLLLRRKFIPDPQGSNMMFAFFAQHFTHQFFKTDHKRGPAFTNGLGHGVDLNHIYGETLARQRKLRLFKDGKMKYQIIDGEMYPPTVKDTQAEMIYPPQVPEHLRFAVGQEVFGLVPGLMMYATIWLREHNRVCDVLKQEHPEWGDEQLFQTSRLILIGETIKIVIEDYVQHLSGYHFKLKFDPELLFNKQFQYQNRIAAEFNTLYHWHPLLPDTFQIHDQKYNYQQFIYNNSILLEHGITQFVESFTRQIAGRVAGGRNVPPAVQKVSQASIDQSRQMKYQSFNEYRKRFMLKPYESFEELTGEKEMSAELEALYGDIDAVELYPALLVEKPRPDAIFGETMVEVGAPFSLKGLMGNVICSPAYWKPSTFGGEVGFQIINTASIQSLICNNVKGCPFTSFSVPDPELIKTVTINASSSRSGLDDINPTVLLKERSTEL
From the text: as §1, §2

[1] = system: VERO (kidney epithelial cells); assay: MTT assay, VERO; assay type: cell-based; conditions: Chlorocebus sabaeus, Vero, 48 h incubation, read-out: IC50 [µM] ± SD VERO
From the text: (§3) The MTT (3-[4,5-dimethylthiazol-2-yl]-2,5-diphenyl tetrazolium bromide) assay was used to determine the cytotoxicity of tested compounds towards different cell lines: normal human dermal fibroblasts (NHDF), kidney epithelial cells (VERO), fibroblasts from Chinese hamster lung (V79) and four human cancer cells: A549 (pulmonary basal cell alveolar adenocarcinoma), MCF-7 (breast adenocarcinoma), LoVo (colon adenocarcinoma), and its drug resistant subline LoVo/Dx. The cell lines used in this study express COX-1 and COX-2. The LoVo line expressed COX-1, the LoVo/Dx subline express both COX-1 and COX-2 [61].
(§4) Each cell line was grown in the culture media recommended by supplier. Before the test they were detached with trypsin/EDTA solution, then to neutralize the effect of Trypsin/EDTA solution, FBS containing medium was used. After centrifugation the cells were stained with 0.4% solution of trypan blue, counted and inspected for viability using microscope. In the end, cells were inserted into 96-well culture plates and incubated in CO2 incubator (37 °C, 24 h). The number of cells was 2 × 10^3 cells per well. The tested compounds with different concentrations (5, 10, 20, 50, 100 µM) were dissolved in DMSO and then added to the cells (the final DMSO concentration was 0.1%). The cultures were incubated for another 48 h. After that time the cells were collected to be used in tests.
(§5) MTT assay was used to find out how tested compounds influence the metabolic activity of investigated cell lines. The cells were incubated with tested compounds. After removing of supernatant, 1 mg/mL of MTT solution in MEM was added to the plate (to each well) and then the plates were incubated at 37 °C for 2 h. The medium was removed again, and formazan crystals were dissolved in isopropanol. A Varioscan LUX microplate reader (Thermo Fisher Scientific, Waltham, MA, USA) was used to measure absorbance at 570 nm.

[2] = system: V79 (fibroblasts from Chinese hamster lung); assay: MTT assay, V79; assay type: cell-based; conditions: Cricetulus griseus, Fibroblast, 48 h incubation, read-out: IC50 [µM] ± SD V79
From the text: as §3, §4, §5

[3] = system: A549 (pulmonary basal cell alveolar adenocarcinoma); assay: MTT assay, A549; assay type: cell-based; conditions: Homo sapiens, 48 h incubation, read-out: IC50 [µM] ± SD A549
From the text: as §3, §4, §5

[4] = system: MCF-7 (breast adenocarcinoma); assay: MTT assay, MCF-7; assay type: cell-based; conditions: Homo sapiens, MCF7, 48 h incubation, read-out: IC50 [µM] ± SD MCF-7
From the text: as §3, §4, §5

[5] = system: LoVo (colon adenocarcinoma); assay: MTT assay, LoVo; assay type: cell-based; conditions: Homo sapiens, 48 h incubation, read-out: IC50 [µM] ± SD LoVo
From the text: as §3, §4, §5

## Cc1cc(C)c(C(=O)NCc2nn(CC(=O)NN)c(=S)o2)c(S)n1 [Compound 4, N-{[4-(2-hydrazinyl-2-oxoethyl)-5-sulfanylidene-4,5-dihydro-1,3,4-oxadiazol-2-yl]methyl}-4,6-dimethyl-2-sulfanylpyridine-3-carboxamide]
COX-1
  IC50: 135 ± 5.99 µM
COX-2
  IC50 [µM] ± SD COX-2: showed only COX-1 inhibitory activity
[1]
  IC50: 77.4 ± 5.84 µM
[2]
  IC50: 71.7 ± 5.8 µM
[3]
  IC50: 3.84 ± 0.3 µM
[4]
  IC50: 9.63 ± 1.66 µM
[5]
  IC50: 3.01 ± 0.2 µM
other
  melting point: 201 to 205 °C
